Test results taken from patent US20100160454A1, “ANTIMICROBIAL AGENTS, COMPOSITIONS AND PRODUCTS CONTAINING THE SAME, AND METHODS OF USING THE COMPOSITIONS AND PRODUCTS” (Eastman Chemical Company, priority 2008, published 2010).

What was measured:
Experiment in all cases: Microbiological challenge testing in BPW broth, graded subculture counts
Assay type in all cases: cell-based
[1] = system: Staphylococcus epidermidis ATCC 12228
How it was run: (§1)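 TSB + 1% dextrose cultures, 35 ± 2 °C, ≥96 h. Inoculum calibrated by NTU vs plate counts; challenge at 10^5–10^6 CFU/mL final in BPW/1% dextrose with test material. Triplicates (butoxyethanol in duplicate). Spread plates on PCA, ≥48 h, CFU/mL = count × dilution.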

[2] = system: Burkholderia cepacia Wild type; conditions: B. cepacia
How it was run: as §1

[3] = system: Escherichia coli ATCC 25922; conditions: E. Coli
How it was run: as §1

[4] = system: Proteus vulgaris Wild type
How it was run: as §1

Aeromonas sp. Wild type = system: Aeromonas sp. Wild type
How it was run: as §1

[5] = system: Staphylococcus aureus ATCC 25923; conditions: S. aureus
How it was run: as §1

In the case of `OCC1CCCC(CO)C1` (stereo not drawn) [1,3-CHDM, 1,3-cyclohexanedimethanol], the “S. epidermidis growth grade, 3 day” value ([1]; 0.5% weight/volume) is reported as 4 (1000 to 10,000 colonies countable (thus 10,000 CFU/mL to 100,000 CFU/mL)), the “S. epidermidis growth grade, 13 day” value ([1]; 0.5% weight/volume) is reported as 4 (1000 to 10,000 colonies countable (thus 10,000 CFU/mL to 100,000 CFU/mL)) and the “S. epidermidis growth grade, 30 day” value ([1]; 0.5% weight/volume) is reported as 4 (1000 to 10,000 colonies countable (thus 10,000 CFU/mL to 100,000 CFU/mL)). For the same compound, the “S. epidermidis growth grade, 3 day” value ([1]; 1.25% weight/volume) was 4 (1000 to 10,000 colonies countable (thus 10,000 CFU/mL to 100,000 CFU/mL)), the “S. epidermidis growth grade, 13 day” value ([1]; 1.25% weight/volume) was 3.7 and the “S. epidermidis growth grade, 30 day” value ([1]; 1.25% weight/volume) was 4 (1000 to 10,000 colonies countable (thus 10,000 CFU/mL to 100,000 CFU/mL)). The “S. epidermidis growth grade, 3 day” value ([1]; 2.5% weight/volume) was 4 (1000 to 10,000 colonies countable (thus 10,000 CFU/mL to 100,000 CFU/mL)), the “S. epidermidis growth grade, 13 day” value ([1]; 2.5% weight/volume) was 3 (100 to 1000 colonies (thus 1000 to 10,000 CFU/mL)) and the “S. epidermidis growth grade, 30 day” value ([1]; 2.5% weight/volume) was 4 (1000 to 10,000 colonies countable (thus 10,000 CFU/mL to 100,000 CFU/mL)). For the same compound, the “S. epidermidis growth grade, 3 day” value ([1]; 5.0% weight/volume) was 2 (52 to 100 colonies counted (thus 520 to 1000 CFU/mL)), the “S. epidermidis growth grade, 13 day” value ([1]; 5.0% weight/volume) was 1 (0 to 51 colonies counted (thus 10 to 510 CFU/mL based on 0.1-mL sample)) and the “S. epidermidis growth grade, 30 day” value ([1]; 5.0% weight/volume) was 3 (100 to 1000 colonies (thus 1000 to 10,000 CFU/mL)). For the same compound, the Grade ([2]; 0.5% (wt/vol), 3 day) was 5 (More than 10,000 colonies estimated (thus more than 100,000 CFU/mL)), the Grade ([2]; 0.5% (wt/vol), 14 day) was 5 (More than 10,000 colonies estimated (thus more than 100,000 CFU/mL)) and the Grade ([2]; 0.5% (wt/vol), 30 day) was 5 (More than 10,000 colonies estimated (thus more than 100,000 CFU/mL)). The Grade ([2]; 1.25% (wt/vol), 3 day) was 4.7, the Grade ([2]; 1.25% (wt/vol), 14 day) was 4.7 and the Grade ([2]; 1.25% (wt/vol), 30 day) was 4.7. The Grade ([2]; 2.5% (wt/vol), 3 day) was 4 (1000 to 10,000 colonies countable (thus 10,000 CFU/mL to 100,000 CFU/mL)), the Grade ([2]; 2.5% (wt/vol), 14 day) was 4 (1000 to 10,000 colonies countable (thus 10,000 CFU/mL to 100,000 CFU/mL)) and the Grade ([2]; 2.5% (wt/vol), 30 day) was 4 (1000 to 10,000 colonies countable (thus 10,000 CFU/mL to 100,000 CFU/mL)). For the same compound, the Grade ([2]; 5.0% (wt/vol), 3 day) was 3 (100 to 1000 colonies (thus 1000 to 10,000 CFU/mL)), the Grade ([2]; 5.0% (wt/vol), 14 day) was 1 (0 to 51 colonies counted (thus 10 to 510 CFU/mL based on 0.1-mL sample)) and the Grade ([2]; 5.0% (wt/vol), 30 day) was 3.3. The Grade ([3]; 0.5% (wt/vol), 3 day) was 5 (More than 10,000 colonies estimated (thus more than 100,000 CFU/mL)), the Grade ([3]; 0.5% (wt/vol), 14 day) was 5 (More than 10,000 colonies estimated (thus more than 100,000 CFU/mL)) and the Grade ([3]; 0.5% (wt/vol), 30 day) was 5 (More than 10,000 colonies estimated (thus more than 100,000 CFU/mL)). The Grade ([3]; 1.25% (wt/vol), 3 day) was 5 (More than 10,000 colonies estimated (thus more than 100,000 CFU/mL)), the Grade ([3]; 1.25% (wt/vol), 14 day) was 4 (1000 to 10,000 colonies countable (thus 10,000 CFU/mL to 100,000 CFU/mL)) and the Grade ([3]; 1.25% (wt/vol), 30 day) was 4 (1000 to 10,000 colonies countable (thus 10,000 CFU/mL to 100,000 CFU/mL)). The Grade ([3]; 2.5% (wt/vol), 3 day) was 5 (More than 10,000 colonies estimated (thus more than 100,000 CFU/mL)), the Grade ([3]; 2.5% (wt/vol), 14 day) was 4 (1000 to 10,000 colonies countable (thus 10,000 CFU/mL to 100,000 CFU/mL)) and the Grade ([3]; 2.5% (wt/vol), 30 day) was 4 (1000 to 10,000 colonies countable (thus 10,000 CFU/mL to 100,000 CFU/mL)). The Grade ([3]; 5.0% (wt/vol), 3 day) was 4 (1000 to 10,000 colonies countable (thus 10,000 CFU/mL to 100,000 CFU/mL)), the Grade ([3]; 5.0% (wt/vol), 14 day) was 3 (100 to 1000 colonies (thus 1000 to 10,000 CFU/mL)) and the Grade ([3]; 5.0% (wt/vol), 30 day) was 4 (1000 to 10,000 colonies countable (thus 10,000 CFU/mL to 100,000 CFU/mL)). The “P. vulgaris growth grade, 3 day” value ([4]; 0.5% weight/volume) was 5 (More than 10,000 colonies estimated (thus more than 100,000 CFU/mL)), the “P. vulgaris growth grade, 13 day” value ([4]; 0.5% weight/volume) was 5 (More than 10,000 colonies estimated (thus more than 100,000 CFU/mL)) and the “P. vulgaris growth grade, 30 day” value ([4]; 0.5% weight/volume) was 5 (More than 10,000 colonies estimated (thus more than 100,000 CFU/mL)). The “P. vulgaris growth grade, 3 day” value ([4]; 1.25% weight/volume) was 5 (More than 10,000 colonies estimated (thus more than 100,000 CFU/mL)), the “P. vulgaris growth grade, 13 day” value ([4]; 1.25% weight/volume) was 4 (1000 to 10,000 colonies countable (thus 10,000 CFU/mL to 100,000 CFU/mL)) and the “P. vulgaris growth grade, 30 day” value ([4]; 1.25% weight/volume) was 4 (1000 to 10,000 colonies countable (thus 10,000 CFU/mL to 100,000 CFU/mL)). For the same compound, the “P. vulgaris growth grade, 3 day” value ([4]; 2.5% weight/volume) was 4 (1000 to 10,000 colonies countable (thus 10,000 CFU/mL to 100,000 CFU/mL)), the “P. vulgaris growth grade, 13 day” value ([4]; 2.5% weight/volume) was 4 (1000 to 10,000 colonies countable (thus 10,000 CFU/mL to 100,000 CFU/mL)) and the “P. vulgaris growth grade, 30 day” value ([4]; 2.5% weight/volume) was 4 (1000 to 10,000 colonies countable (thus 10,000 CFU/mL to 100,000 CFU/mL)). For the same compound, the “P. vulgaris growth grade, 3 day” value ([4]; 5.0% weight/volume) was 4 (1000 to 10,000 colonies countable (thus 10,000 CFU/mL to 100,000 CFU/mL)), the “P. vulgaris growth grade, 13 day” value ([4]; 5.0% weight/volume) was 4 (1000 to 10,000 colonies countable (thus 10,000 CFU/mL to 100,000 CFU/mL)) and the “P. vulgaris growth grade, 30 day” value ([4]; 5.0% weight/volume) was 4 (1000 to 10,000 colonies countable (thus 10,000 CFU/mL to 100,000 CFU/mL)). The “Aeromonas sp growth grade, 3 day” value (Aeromonas sp. Wild type; 0.5% weight/volume) was 5 (More than 10,000 colonies estimated (thus more than 100,000 CFU/mL)), the “Aeromonas sp growth grade, 14 day” value (Aeromonas sp. Wild type; 0.5% weight/volume) was 4 (1000 to 10,000 colonies countable (thus 10,000 CFU/mL to 100,000 CFU/mL)) and the “Aeromonas sp growth grade, 30 day” value (Aeromonas sp. Wild type; 0.5% weight/volume) was 4 (1000 to 10,000 colonies countable (thus 10,000 CFU/mL to 100,000 CFU/mL)). The “Aeromonas sp growth grade, 3 day” value (Aeromonas sp. Wild type; 1.25% weight/volume) was 4 (1000 to 10,000 colonies countable (thus 10,000 CFU/mL to 100,000 CFU/mL)), the “Aeromonas sp growth grade, 14 day” value (Aeromonas sp. Wild type; 1.25% weight/volume) was 4 (1000 to 10,000 colonies countable (thus 10,000 CFU/mL to 100,000 CFU/mL)) and the “Aeromonas sp growth grade, 30 day” value (Aeromonas sp. Wild type; 1.25% weight/volume) was 4 (1000 to 10,000 colonies countable (thus 10,000 CFU/mL to 100,000 CFU/mL)). The “Aeromonas sp growth grade, 3 day” value (Aeromonas sp. Wild type; 2.5% weight/volume) was 4 (1000 to 10,000 colonies countable (thus 10,000 CFU/mL to 100,000 CFU/mL)), the “Aeromonas sp growth grade, 14 day” value (Aeromonas sp. Wild type; 2.5% weight/volume) was 4 (1000 to 10,000 colonies countable (thus 10,000 CFU/mL to 100,000 CFU/mL)) and the “Aeromonas sp growth grade, 30 day” value (Aeromonas sp. Wild type; 2.5% weight/volume) was 4 (1000 to 10,000 colonies countable (thus 10,000 CFU/mL to 100,000 CFU/mL)). The “Aeromonas sp growth grade, 3 day” value (Aeromonas sp. Wild type; 5.0% weight/volume) was 4 (1000 to 10,000 colonies countable (thus 10,000 CFU/mL to 100,000 CFU/mL)), the “Aeromonas sp growth grade, 14 day” value (Aeromonas sp. Wild type; 5.0% weight/volume) was 4 (1000 to 10,000 colonies countable (thus 10,000 CFU/mL to 100,000 CFU/mL)) and the “Aeromonas sp growth grade, 30 day” value (Aeromonas sp. Wild type; 5.0% weight/volume) was 4 (1000 to 10,000 colonies countable (thus 10,000 CFU/mL to 100,000 CFU/mL)). For the same compound, the Grade ([5]; 0.5% (wt/vol), 3 day) was 5 (More than 10,000 colonies estimated (thus more than 100,000 CFU/mL)), the Grade ([5]; 0.5% (wt/vol), 14 day) was 5 (More than 10,000 colonies estimated (thus more than 100,000 CFU/mL)) and the Grade ([5]; 0.5% (wt/vol), 30 day) was 5 (More than 10,000 colonies estimated (thus more than 100,000 CFU/mL)). For the same compound, the Grade ([5]; 1.25% (wt/vol), 3 day) was 4 (1000 to 10,000 colonies countable (thus 10,000 CFU/mL to 100,000 CFU/mL)), the Grade ([5]; 1.25% (wt/vol), 14 day) was 4 (1000 to 10,000 colonies countable (thus 10,000 CFU/mL to 100,000 CFU/mL)) and the Grade ([5]; 1.25% (wt/vol), 30 day) was 4 (1000 to 10,000 colonies countable (thus 10,000 CFU/mL to 100,000 CFU/mL)). The Grade ([5]; 2.5% (wt/vol), 3 day) was 4 (1000 to 10,000 colonies countable (thus 10,000 CFU/mL to 100,000 CFU/mL)), the Grade ([5]; 2.5% (wt/vol), 14 day) was 4 (1000 to 10,000 colonies countable (thus 10,000 CFU/mL to 100,000 CFU/mL)) and the Grade ([5]; 2.5% (wt/vol), 30 day) was 4 (1000 to 10,000 colonies countable (thus 10,000 CFU/mL to 100,000 CFU/mL)). The Grade ([5]; 5.0% (wt/vol), 3 day) was 4 (1000 to 10,000 colonies countable (thus 10,000 CFU/mL to 100,000 CFU/mL)), the Grade ([5]; 5.0% (wt/vol), 14 day) was 3 (100 to 1000 colonies (thus 1000 to 10,000 CFU/mL)) and the Grade ([5]; 5.0% (wt/vol), 30 day) was 4 (1000 to 10,000 colonies countable (thus 10,000 CFU/mL to 100,000 CFU/mL)).
